Assay results as given in patent publication US12351580B2, “NLRP3 modulators” (Innate Tumor Immunity, Inc., priority 2017, dated 2025).
Counter-ions that a name gives are not always drawn.

Target: T1, hNLRP3 (Homo sapiens, UniProt Q96P20)
T1 construct: THP-1 cells were purchased from the American Type Culture Collection; host or cells: THP-1 cells, PMA-differentiated
Test: Measurement of IL-1β production in PMA-differentiated THP-1 cells (hNLRP3 agonist; ELISA, alternative and hTRF procedures)
Assay type: cell-based
In short: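 Supernatant IL-1β was quantified by ELISA in two procedures and by hTRF (kit antibodies at 1:40) in a third. THP-1 cells were first differentiated with PMA ([…] for 24 h; 20 μg/ml overnight; 50 ng/ml overnight), then incubated in 2% FBS RPMI with compounds for 4 h, 2 h and 2 h, respectively, at 1% DMSO or a 10 μM top concentration.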

T1 sequence (Q96P20 whole entry): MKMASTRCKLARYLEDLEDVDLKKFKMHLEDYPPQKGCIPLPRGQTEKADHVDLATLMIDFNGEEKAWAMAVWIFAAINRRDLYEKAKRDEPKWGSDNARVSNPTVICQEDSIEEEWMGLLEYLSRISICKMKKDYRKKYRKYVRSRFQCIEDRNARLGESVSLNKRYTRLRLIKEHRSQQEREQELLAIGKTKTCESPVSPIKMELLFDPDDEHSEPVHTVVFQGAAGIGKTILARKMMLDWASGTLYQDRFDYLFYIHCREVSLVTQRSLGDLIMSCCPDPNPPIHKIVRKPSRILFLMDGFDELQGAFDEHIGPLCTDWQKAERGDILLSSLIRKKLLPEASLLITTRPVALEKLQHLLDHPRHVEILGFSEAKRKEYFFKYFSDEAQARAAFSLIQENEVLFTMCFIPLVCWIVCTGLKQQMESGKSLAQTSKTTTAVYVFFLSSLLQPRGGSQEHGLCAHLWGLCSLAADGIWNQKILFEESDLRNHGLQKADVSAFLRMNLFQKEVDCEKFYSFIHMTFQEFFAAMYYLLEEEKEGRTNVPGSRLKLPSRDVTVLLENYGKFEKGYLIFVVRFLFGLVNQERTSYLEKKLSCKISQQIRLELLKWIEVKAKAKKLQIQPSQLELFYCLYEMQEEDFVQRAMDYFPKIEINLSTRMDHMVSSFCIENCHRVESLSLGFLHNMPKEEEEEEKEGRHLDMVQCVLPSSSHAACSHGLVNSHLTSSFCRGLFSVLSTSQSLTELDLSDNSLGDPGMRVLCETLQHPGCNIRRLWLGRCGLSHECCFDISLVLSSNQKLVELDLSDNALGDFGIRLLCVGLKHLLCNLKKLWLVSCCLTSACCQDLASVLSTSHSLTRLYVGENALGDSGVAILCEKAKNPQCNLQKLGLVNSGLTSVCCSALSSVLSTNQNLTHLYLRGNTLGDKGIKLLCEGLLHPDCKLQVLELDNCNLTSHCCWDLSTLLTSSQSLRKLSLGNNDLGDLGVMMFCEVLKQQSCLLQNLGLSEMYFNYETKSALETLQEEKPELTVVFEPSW

EC50 | Compound
710 nM | CCN(Cc1nc2c(N)nc3cc(-c4cc[nH]n4)ccc3c2[nH]1)CC(C)C [Compound 453, 2-{[ethyl(2-methylpropyl)amino]methyl}-7-(1H-pyrazol-3-yl)-1H-imidazo[4,5-c]quinolin-4-amine]
740 nM | CCN(CC)C(=O)N(CC)Cc1nc2c(N)nc3cc(-c4cc[nH]n4)ccc3c2[nH]1 [Compound 454, 1-{[4-amino-7-(1H-pyrazol-3-yl)-1H-imidazo[4,5-c]quinolin-2-yl]methyl}-1,3,3-triethylurea]
2000 nM | CCN(Cc1nc2c(N)nc3cc(-c4cc[nH]n4)ccc3c2[nH]1)C(=O)N1CCOCC1 [Compound 455, N-{[4-amino-7-(1H-pyrazol-3-yl)-1H-imidazo[4,5-c]quinolin-2-yl]methyl}-N-ethylmorpholine-4-carboxamide]
2200 nM | CCN(Cc1nc2c(N)nc3cc(-c4cc[nH]n4)ccc3c2[nH]1)C(=O)NC(C)(C)C [Compound 456, 1-{[4-amino-7-(1H-pyrazol-3-yl)-1H-imidazo[4,5-c]quinolin-2-yl]methyl}-3-tert-butyl-1-ethylurea]
6600 nM | CCNC(=O)N(CC)Cc1nc2c(N)nc3cc(-c4cc[nH]n4)ccc3c2[nH]1 [Compound 457, 1-{[4-amino-7-(1H-pyrazol-3-yl)-1H-imidazo[4,5-c]quinolin-2-yl]methyl}-1,3-diethylurea]
2100 nM | CCN(Cc1nc2c(N)nc3cc(-c4cc[nH]n4)ccc3c2[nH]1)S(=O)(=O)N(C)C [Compound 458, 2-{[(dimethylsulfamoyl)(ethyl)amino]methyl}-7-(1H-pyrazol-3-yl)-1H-imidazo[4,5-c]quinolin-4-amine]
6700 nM | CCN(Cc1nc2c(N)nc3cc(-c4cc[nH]n4)ccc3c2[nH]1)S(=O)(=O)C(C)C [Compound 459, N-{[4-amino-7-(1H-pyrazol-3-yl)-1H-imidazo[4,5-c]quinolin-2-yl]methyl}-N-ethylpropane-2-sulfonamide]
1500 nM | CCCS(=O)(=O)N(CC)Cc1nc2c(N)nc3cc(-c4cc[nH]n4)ccc3c2[nH]1 [Compound 460, N-{[4-amino-7-(1H-pyrazol-3-yl)-1H-imidazo[4,5-c]quinolin-2-yl]methyl}-N-ethylpropane-1-sulfonamide]
5500 nM | CCNCc1nc2c(N)nc3cc(-c4ccn[nH]4)ccc3c2n1CCO [Compound 462, 2-[4-Amino-2-[(ethylamino)methyl]-7-(1H-pyrazol-5-yl)-1H-imidazo[4,5-c]quinolin-1-yl]ethan-1-ol]
220 nM | CCn1c(CN2CCCC2=O)nc2c(N)nc3cc(-c4cccs4)ccc3c21 [Compound 463, 1-{[4-amino-1-ethyl-7-(thiophen-2-yl)-1H-imidazo[4,5-c]quinolin-2-yl]methyl}pyrrolidin-2-one]
240 nM | CCNCc1nc2c(N)nc3cc(-c4ccn[nH]4)ccc3c2n1CC [Compound 464, 1-ethyl-2-[(ethylamino)methyl]-7-(1H-pyrazol-5-yl)-1H-imidazo[4,5-c]quinolin-4-amine]
1000 nM | CCn1c(CN2CCCC2=O)nc2c(N)nc3cc(-n4cccn4)ccc3c21 [Compound 465, 1-{[4-amino-1-ethyl-7-(1H-pyrazol-1-yl)-1H-imidazo[4,5-c]quinolin-2-yl]methyl}pyrrolidin-2-one]
1100 nM | CCn1c(CN2CCCC2=O)nc2c(N)nc3cc(-c4ccn[nH]4)ccc3c21 [Compound 466, 1-{[4-amino-1-ethyl-7-(1H-pyrazol-5-yl)-1H-imidazo[4,5-c]quinolin-2-yl]methyl}pyrrolidin-2-one]
1200 nM | CCNCc1nc2c(N)nc3cc(-n4cccn4)ccc3c2n1CC [Compound 467, 1-ethyl-2-((ethylamino)methyl)-7-(1H-pyrazol-1-yl)-1H-imidazo[4,5-c]quinolin-4-amine]
2100 nM | CCNCc1nc2c(N)nc3cc(-c4cccs4)ccc3c2n1CC [Compound 468, 1-ethyl-2-[(ethylamino)methyl]-7-(thiophen-2-yl)-1H-imidazo[4,5-c]quinolin-4-amine]
670 nM | Nc1nc2cc(-c3cccs3)ccc2c2c1nc(CN1CCCC1=O)n2CCO [Compound 469, 1-{[4-amino-1-(2-hydroxyethyl)-7-(thiophen-2-yl)-1H-imidazo[4,5-c]quinolin-2-yl]methyl}pyrrolidin-2-one]
690 nM | CCC(=O)N(CC)Cc1nc2c(N)nc3cc(-c4cccs4)ccc3c2n1CCO [Compound 470, N-{[4-amino-1-(2-hydroxyethyl)-7-(thiophen-2-yl)-1H-imidazo[4,5-c]quinolin-2-yl]methyl}-N-ethylpropanamide]
1200 nM | CCNCc1nc2c(N)nc3cc(-c4cccs4)ccc3c2n1CCO [Compound 471, 2-{4-amino-2-[(ethylamino)methyl]-7-(thiophen-2-yl)-1H-imidazo[4,5-c]quinolin-1-yl}ethan-1-ol]
430 nM | CCN(Cc1nc2c(N)nc3cc(-c4cccs4)ccc3c2n1CC)C(C)=O [Compound 472, N-{[4-amino-1-ethyl-7-(thiophen-2-yl)-1H-imidazo[4,5-c]quinolin-2-yl]methyl}-N-ethylacetamide]
220 nM | CCC(=O)N(CC)Cc1nc2c(N)nc3cc(-c4ccn[nH]4)ccc3c2n1CC [Compound 473, N-{[4-amino-1-ethyl-7-(1H-pyrazol-5-yl)-1H-imidazo[4,5-c]quinolin-2-yl]methyl}-N-ethylpropanamide]
1200 nM | CCN(Cc1nc2c(N)nc3cc(-c4ccn[nH]4)ccc3c2n1CC)C(C)=O [Compound 474, N-{[4-amino-1-ethyl-7-(1H-pyrazol-5-yl)-1H-imidazo[4,5-c]quinolin-2-yl]methyl}-N-ethylacetamide]
23000 nM | CCC(=O)N(CC)Cc1nc2c(N)nc3cc(-c4ccn[nH]4)ccc3c2n1CCO [Compound 475, N-{[4-amino-1-(2-hydroxyethyl)-7-(1H-pyrazol-5-yl)-1H-imidazo[4,5-c]quinolin-2-yl]methyl}-N-ethylpropanamide]
6100 nM | CCN(Cc1nc2c(N)nc3cc(-n4cccn4)ccc3c2n1CCO)C(C)=O [Compound 476, N-{[4-amino-1-(2-hydroxyethyl)-7-(1H-pyrazol-1-yl)-1H-imidazo[4,5-c]quinolin-2-yl]methyl}-N-ethylacetamide]
6300 nM | CCNCc1nc2c(N)nc3cc(-n4cccn4)ccc3c2n1CCO [Compound 477, 2-[4-amino-2-[(ethylamino)methyl]-7-(1H-pyrazol-1-yl)-1H-imidazo[4,5-c]quinolin-l-yl]ethan-1-ol]

Further lines, the compound ahead of its results:

Compound | EC50
CCNCc1nc2c(N)nc3cc(-c4cc[nH]n4)ccc3c2[nH]1 [Compound 101, 2-[(Ethylamino)methyl]-7-(1H-pyrazol-3-yl)-1H-imidazo[4,5-c]quinolin-4-amine hydrochloride] | 270 nM
CC(=O)N(C)Cc1nc2c(N)nc3cc(-n4cccn4)ccc3c2[nH]1 [Compound 102, N-((4-Amino-7-(1H-pyrazol-1-yl)-1H-imidazo[4,5-c]quinolin-2-yl)methyl)-N-methylacetamide] | 1600 nM
CN(Cc1nc2c(N)nc3cc(-n4cccn4)ccc3c2[nH]1)S(C)(=O)=O [Compound 119] | 1380 nM
CN(Cc1nc2c(N)nc3cc(-c4cc[nH]n4)ccc3c2[nH]1)C(=O)C1CC1 [Compound 120] | 1690 nM
CCN(Cc1nc2c(N)nc3cc(-c4cc[nH]n4)ccc3c2n1C)C(C)=O [Compound 121] | 1820 nM
CCC(=O)N(C)Cc1nc2c(N)nc3cc(-c4cc[nH]n4)ccc3c2[nH]1 [Compound 122] | 1400 nM
CCN(Cc1nc2c(N)nc3cc(-c4cc[nH]n4)ccc3c2[nH]1)S(C)(=O)=O [Compound 124] | 2400 nM
CCC(=O)N(CC)Cc1nc2c(N)nc3cc(-c4cc[nH]n4)ccc3c2[nH]1 [Compound 125] | 2100 nM
CCN(Cc1nc2c(N)nc3cc(-c4cc[nH]n4)ccc3c2[nH]1)C(=O)NC [Compound 128] | 2900 nM
CC(=O)N(C)Cc1nc2c(N)nc3cc(-c4cc[nH]n4)ccc3c2[nH]1 [Compound 129] | 3600 nM
CCN(Cc1nc2c(N)nc3cc(-n4cccn4)ccc3c2[nH]1)C(N)=O [Compound 130] | 3300 nM
NCc1nc2c(N)nc3cc(-c4cc[nH]n4)ccc3c2[nH]1 [Compound 131] | 3500 nM
CCN(Cc1nc2c(N)nc3cc(-n4nccn4)ccc3c2[nH]1)C(C)=O [Compound 132] | 3500 nM
CC(c1nc2c(N)nc3cc(-c4cccnc4)ccc3c2[nH]1)N1CCCC1=O (stereo not shown) [Compound 138] | 6700 nM
CC(=O)N(Cc1nc2c(N)nc3cc(-c4cc[nH]n4)ccc3c2[nH]1)C(C)C [Compound 140] | 7300 nM
Nc1nc2ccc(Cl)cc2c2[nH]c(CN3CCCC3=O)nc12 [Compound 141] | 9000 nM
CC(C)(C)OC(=O)NCc1nc2c(N)nc3cc(-c4cc[nH]n4)ccc3c2[nH]1 [Compound 142] | 9100 nM
Nc1nc2cc(Cl)ccc2c2[nH]c(CN3CCCC3=O)nc12 [Compound 143] | 9400 nM
Nc1nc2cc(-c3ccc(Cl)nc3)ccc2c2[nH]c(CN3CCCC3=O)nc12 [Compound 153] | 12000 nM
CCNCc1nc2c(N)nc3cc(OC)ccc3c2[nH]1 [Compound 154] | 16100 nM
CCN(Cc1nc2c(N)nc3cc(-c4ncc[nH]4)ccc3c2[nH]1)C(=O)OC(C)(C)C [Compound 155] | 17400 nM
Nc1nc2cc(-n3ncc4ccccc43)ccc2c2[nH]c(CN3CCCC3=O)nc12 [Compound 157] | 23400 nM
CCN(Cc1nc2c(N)nc3cc(OC)ccc3c2[nH]1)C(C)=O [Compound 158, N-((4-Amino-7-methoxy-1H-imidazo[4,5-c]quinolin-2-yl)methyl)-N-ethylacetamide] | 24500 nM
CCN(Cc1nc2c(N)nc3cc(Cl)c(Cl)cc3c2[nH]1)C(C)=O [Compound 159] | 25900 nM
CCNCc1nc2c(N)nc3cc(-c4ncc[nH]4)ccc3c2[nH]1 [Compound 162] | 42000 nM
